US20140163012A1, “PYRIDO-/AZEPINO-BENZOFURAN AND PYRIDO-/AZEPINO-BENZOTHIOPHENE MCH-1 ANTAGONISTS, METHODS OF MAKING, AND USE THEREOF” (Albany Molecular Research, Inc., priority 2012, published 2014)
pKi: −log10 of the molar value. Counter-ions that a name gives are not always drawn.

biological target: human MCH-1 receptor (Homo sapiens, UniProt Q99705); test: Binding assay for human melanin-concentrating hormone (MCH-1) receptor, radioligand displacement on CHO-K1 cell membranes; details: not given
Sequence (Q99705 whole entry): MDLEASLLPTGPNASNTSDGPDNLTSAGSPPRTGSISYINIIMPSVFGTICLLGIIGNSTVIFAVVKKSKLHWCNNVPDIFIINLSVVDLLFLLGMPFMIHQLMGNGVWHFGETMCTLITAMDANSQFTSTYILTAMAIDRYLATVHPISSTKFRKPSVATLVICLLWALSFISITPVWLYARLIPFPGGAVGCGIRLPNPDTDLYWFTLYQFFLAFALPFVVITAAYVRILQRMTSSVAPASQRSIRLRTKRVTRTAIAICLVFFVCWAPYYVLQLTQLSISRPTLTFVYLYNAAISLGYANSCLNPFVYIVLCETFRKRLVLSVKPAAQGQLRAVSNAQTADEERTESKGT

| SMILES | pKi |
| --- | --- |
| CC(C)N1CCc2oc3cc(-n4ccc(OCc5ccccc5)cc4=O)ccc3c2C1 [Example 30, 4-(Benzyloxy)-1-(2-isopropyl-1,2,3,4-tetrahydrobenzofuro[3,2-c]pyridin-7-yl)pyridin-2(1H)-one hydrochloride] | 8.05 |
| C[C@H]1Cc2oc3cc(-n4ccc(OCc5ccccc5)cc4=O)ccc3c2CN1 [Example 32, (S)-4-(Benzyloxy)-1-(3-methyl-1,2,3,4-tetrahydrobenzofuro[3,2-c]pyridin-7-yl)pyridin-2(1H)-one hydrochloride] | 8.13 |
| C[C@@H]1NCCc2oc3cc(-n4ccc(OCc5ccccc5)cc4=O)ccc3c21 [Example 33, (S)-4-(Benzyloxy)-1-(1-methyl-1,2,3,4-tetrahydrobenzofuro[3,2-c]pyridin-7-yl)pyridin-2(1H)-one hydrochloride] | 8.22 |
| C[C@H]1Cc2oc3cc(-n4ccc(OCc5ccccn5)cc4=O)ccc3c2CN1 [Example 34, (S)-1-(3-Methyl-1,2,3,4-tetrahydrobenzofuro[3,2-c]pyridin-7-yl)-4-(pyridin-2-ylmethoxy)pyridin-2(1H)-one hydrochloride] | 7.42 |
| C[C@@H]1NCCc2oc3cc(-n4ccc(OCc5ccccn5)cc4=O)ccc3c21 [Example 35, (S)-1-(1-Methyl-1,2,3,4-tetrahydrobenzofuro[3,2-c]pyridin-7-yl)-4-(pyridin-2-ylmethoxy)pyridin-2(1H)-one hydrochloride] | 7.24 |
| O=c1cc(OCc2ccccc2)ccn1-c1ccc2c3c(oc2c1)CCNCC3 [Example 41, 4-(Benzyloxy)-1-(2,3,4,5-tetrahydro-1H-benzofuro[2,3-d]azepin-8-yl)pyridin-2(1H)-one hydrochloride] | 8.24 |
| O=c1cc(-c2ccc(C(F)(F)F)cc2)ccn1-c1ccc2c3c(oc2c1)CCCNC3 [Example 48, 1-(2,3,4,5-Tetrahydro-1H-benzofuro[3,2-c]azepin-8-yl)-4-(4-(trifluoromethyl)phenyl)pyridin-2(1H)-one hydrochloride] | 8.35 |
| CN1CCCc2oc3cc(-n4ccc(OCc5cccc(C(F)(F)F)n5)cc4=O)ccc3c2C1 [Example 49, 1-(2-Methyl-2,3,4,5-tetrahydro-1H-benzofuro[3,2-c]azepin-8-yl)-4-((6-(trifluoromethyl)pyridin-2-yl)methoxy)pyridin-2(1H)-one hydrochloride] | 7.66 |
| CC(=O)N1CCc2c(sc3cc(-n4ccc(OCc5ccc(F)cn5)cc4=O)ccc23)C1 [Example 53, 1-(2-Acetyl-1,2,3,4-tetrahydrobenzothieno[2,3-c]pyridin-7-yl)-4-((5-fluoropyridin-2-yl)methoxy)pyridin-2(1H)-one] | 7.41 |
| CCN1CCc2c(sc3cc(-n4ccc(OCc5ccc(F)cn5)cc4=O)ccc23)C1 [Example 56, 1-(2-Ethyl-1,2,3,4-tetrahydrobenzothieno[2,3-c]pyridin-7-yl)-4-((5-fluoropyridin-2-yl)methoxy)pyridin-2(1H)-one hydrochloride] | 8.02 |
| CC(C)N1CCc2c(sc3cc(-n4ccc(OCc5ccc(F)cn5)cc4=O)ccc23)C1 [Example 57, 4-((5-Fluoropyridin-2-yl)methoxy)-1-(2-isopropyl-1,2,3,4-tetrahydrobenzothieno[2,3-c]pyridin-7-yl)pyridin-2(1H)-one hydrochloride] | 7.96 |
| O=c1cc(OCc2ccc(F)cn2)ccn1-c1ccc2c3c(sc2c1)CN(CCF)CC3 [Example 59, 1-(2-(2-Fluoroethyl)-1,2,3,4-tetrahydrobenzothieno[2,3-c]pyridin-7-yl)-4-((5-fluoropyridin-2-yl)methoxy)pyridin-2(1H)-one hydrochloride] | 7.44 |
| O=C1CN(CCc2ccc(F)cn2)CCN1c1ccc2c3c(sc2c1)CNCC3 [Example 60, 4-(2-(5-Fluoropyridin-2-yl)ethyl)-1-(1,2,3,4-tetrahydrobenzothieno[2,3-c]pyridin-7-yl)piperazin-2-one hydrochloride] | 6.93 |
| O=c1cc(OCc2ccc(F)cn2)cnn1-c1ccc2c3c(sc2c1)CNCC3 [Example 61, 5-((5-Fluoropyridin-2-yl)methoxy)-2-(1,2,3,4-tetrahydrobenzothieno[2,3-c]pyridin-7-yl)pyridazin-3(2H)-one] | 7.47 |
| Cc1ccc(COc2ccn(-c3ccc4c5c(sc4c3)CNCC5)c(=O)c2)cn1 [Example 62, 4-((6-Methylpyridin-3-yl)methoxy)-1-(1,2,3,4-tetrahydrobenzothieno[2,3-c]pyridin-7-yl)pyridin-2(1H)-one hydrochloride] | 6.99 |
| O=C1CN(CCc2ccc(Cl)cc2)CCN1c1ccc2c3c(sc2c1)CNCC3 [Example 63, 4-(4-Chlorophenethyl)-1-(1,2,3,4-tetrahydrobenzothieno[2,3-c]pyridin-7-yl)piperazin-2-one hydrochloride] | 7.48 |
| O=c1cc(OCc2ccc(C(F)(F)F)nc2)ccn1-c1ccc2c3c(sc2c1)CNCC3 [Example 64, 1-(1,2,3,4-Tetrahydrobenzothieno[2,3-c]pyridin-7-yl)-4-((6-(trifluoromethyl)pyridin-3-yl)methoxy)pyridin-2(1H)-one hydrochloride] | 7.32 |
| O=c1cc(OCc2ccc(F)cn2)ccn1-c1ccc2c3c(oc2c1)CCN(CCF)C3 [Example 72, 1-(2-(2-Fluoroethyl)-1,2,3,4-tetrahydrobenzofuro[3,2-c]pyridin-7-yl)-4-((5-fluoropyridin-2-yl)methoxy)pyridin-2(1H)-one hydrochloride] | 7.54 |

The remaining lines, values ahead:

| pKi | SMILES |
| --- | --- |
| 7.34 | CC(=O)N1CCc2oc3cc(-n4ccc(OCc5ccc(F)cn5)cc4=O)ccc3c2C1 [Example 29, 1-(2-Acetyl-1,2,3,4-tetrahydrobenzofuro[3,2-c]pyridin-7-yl)-4-((5-fluoropyridin-2-yl)methoxy)pyridin-2(1H)-one] |
| 7.64 | O=c1cc(OCc2cccc(C(F)(F)F)n2)ccn1-c1ccc2c3c(oc2c1)CCNC3 [Example 31, 1-(1,2,3,4-Tetrahydrobenzofuro[3,2-c]pyridin-7-yl)-4-((6-(trifluoromethyl)pyridin-2-yl)methoxy)pyridin-2(1H)-one hydrochloride] |
| 7.41 | O=c1cc(-c2ccc(C(F)(F)F)cn2)ccn1-c1ccc2c3c(oc2c1)CCCNC3 [Example 36, 1-(2,3,4,5-Tetrahydro-1H-benzofuro[3,2-c]azepin-8-yl)-4-(5-(trifluoromethyl)pyridin-2-yl)pyridin-2(1H)-one hydrochloride] |
| 8.35 | O=c1cc(OCc2ccc(F)cn2)ccn1-c1ccc2c3c(oc2c1)CCCNC3 [Example 37, 4-((5-Fluoropyridin-2-yl)methoxy)-1-(2,3,4,5-tetrahydro-1H-benzofuro[3,2-c]azepin-8-yl)pyridin-2(1H)-one hydrochloride] |
| 8.52 | O=c1cc(OCc2ccc(Cl)cn2)ccn1-c1ccc2c3c(oc2c1)CCCNC3 [Example 38, 4-((5-Chloropyridin-2-yl)methoxy)-1-(2,3,4,5-tetrahydro-1H-benzofuro[3,2-c]azepin-8-yl)pyridin-2(1H)-one hydrochloride] |
| 8.05 | O=c1cc(OCc2ccc(F)cn2)ccn1-c1ccc2c3c(oc2c1)CCNCC3 [Example 39, 4-((5-Fluoropyridin-2-yl)methoxy)-1-(2,3,4,5-tetrahydro-1H-benzofuro[2,3-d]azepin-8-yl)pyridin-2(1H)-one hydrochloride] |
| 8.47 | O=c1cc(OCc2ccccc2)ccn1-c1ccc2c3c(oc2c1)CCCNC3 [Example 40, 4-(Benzyloxy)-1-(2,3,4,5-tetrahydro-1H-benzofuro[3,2-c]azepin-8-yl)pyridin-2(1H)-one hydrochloride] |
| 8.33 | O=c1cc(OCc2ccc(Cl)cn2)ccn1-c1ccc2c3c(oc2c1)CCNCC3 [Example 42, 4-((5-Chloropyridin-2-yl)methoxy)-1-(2,3,4,5-tetrahydro-1H-benzofuro[2,3-d]azepin-8-yl)pyridin-2(1H)-one hydrochloride] |
| 8.01 | O=c1cc(OCc2cccc(C(F)(F)F)n2)ccn1-c1ccc2c3c(oc2c1)CCCNC3 [Example 43, 1-(2,3,4,5-Tetrahydro-1H-benzofuro[3,2-c]azepin-8-yl)-4-((6-(trifluoromethyl)pyridin-2-yl)methoxy)pyridin-2(1H)-one hydrochloride] |
| 7.89 | O=c1cc(OCc2ccc(F)cn2)cnn1-c1ccc2c3c(oc2c1)CCCNC3 [Example 44, 5-((5-Fluoropyridin-2-yl)methoxy)-2-(2,3,4,5-tetrahydro-1H-benzofuro[3,2-c]azepin-8-yl)pyridazin-3(2H)-one hydrochloride] |
| 7.54 | O=c1cc(OCc2ccc(C(F)(F)F)nc2)ccn1-c1ccc2c3c(oc2c1)CCCNC3 [Example 45, 1-(2,3,4,5-Tetrahydro-1H-benzofuro[3,2-c]azepin-8-yl)-4-((6-(trifluoromethyl)pyridin-3-yl)methoxy)pyridin-2(1H)-one hydrochloride] |
| 7.33 | Cc1ccc(COc2ccn(-c3ccc4c5c(oc4c3)CCCNC5)c(=O)c2)cn1 [Example 46, 4-((6-Methylpyridin-3-yl)methoxy)-1-(2,3,4,5-tetrahydro-1H-benzofuro[3,2-c]azepin-8-yl)pyridin-2(1H)-one hydrochloride] |
| 7.26 | O=c1cc(OCc2ccc(C(F)(F)F)nc2)ccn1-c1ccc2c3c(oc2c1)CCNCC3 [Example 47, 1-(2,3,4,5-Tetrahydro-1H-benzofuro[2,3-d]azepin-8-yl)-4-((6-(trifluoromethyl)pyridin-3-yl)methoxy)pyridin-2(1H)-one hydrochloride] |
| 8.57 | O=c1cc(OCc2ccc(F)cn2)ccn1-c1ccc2c3c(sc2c1)CCNC3 [Example 55, 4-((5-Fluoropyridin-2-yl)methoxy)-1-(1,2,3,4-tetrahydrobenzothieno[3,2-c]pyridin-7-yl)pyridin-2(1H)-one hydrochloride] |
| 8.21 | CN1CCc2c(sc3cc(-n4ccc(OCc5ccc(F)cn5)cc4=O)ccc23)C1 [Example 58, 4-((5-Fluoropyridin-2-yl)methoxy)-1-(2-methyl-1,2,3,4-tetrahydrobenzothieno[2,3-c]pyridin-7-yl)pyridin-2(1H)-one hydrochloride] |

same assay, conditions: read-out: MCH1 % inhibition @ 1 uM

| inhibition at 1 µM [%] | SMILES |
| --- | --- |
| 60 | O=C1NCCc2c1sc1cc(-n3ccc(OCc4ccc(F)cn4)cc3=O)ccc21 [Example 54, 7-(4-((5-Fluoropyridin-2-yl)methoxy)-2-oxopyridin-1(2H)-yl)-3,4-dihydrobenzothieno[2,3-c]pyridin-1(2H)-one] |
